{
  "source": "patent US9072698B2",
  "about": "“Method for screening anti-cancer compounds inhibiting function of TM4SF5 and anti-cancer composition containing chalcone compounds” (Seoul National University Industry Foundation, priority 2006, dated 2015)",
  "key": {"MMP-2 and MMP-9": {"system": "MMP-2 and MMP-9", "test": "Gelatin zymography of culture supernatants (FIG. 68)", "format": "cell-based, human", "details": "20 μM, 24 hrs", "description": "The substrate degradation activity of secreted MMPs was investigated using gelatin zymography. Cell lines, indicated in FIG. 62, were cultured in 60-mm culture dishes. After 18 hrs, the medium was exchanged with serum-free medium, and cells were cultured for a further 24 hrs. Culture supernatants were collected to obtain secreted MMPs, and were then concentrated. Samples were electrophoresed on the running SDS-PAGE gel containing gelatin as a substrate for MMPs under reducing conditions. The gel was washed in 1% Triton X-100 to remove SDS, thus renaturing the enzymes. The gel was then incubated in enzyme reaction buffer (10 mM CaCl2, 0.15 M NaCl, 50 mM Tris-HCl, pH 7.5) at 37° C. for 18 hrs. The gel was stained with 0.5% Coomassie Brilliant Blue R250 for 3 hrs, and destained until clear bands appeared in 10% acetic acid and 30% methanol.\nIn addition, Cp cells and Tp cells were treated with 20 μM of TSAHC for 24 hrs. The medium was exchanged with serum-free medium, and cells were cultured for a further 18 hrs. Culture supernatants were collected, concentrated, and analyzed using zymography, as described above."}, "SNU449Tp cells [1]": {"system": "SNU449Tp cells", "test": "Invasion into Matrigel, Transwell chamber (FIG. 67)", "format": "cell-based, human", "details": "cultured for 24 hrs", "description": "The invasiveness of SNU449Tp cells was also analyzed using Boyden Transwell chamber 24 well plates, as mentioned in Example 7-(1). Matrigel was added to the insert of the plates, and was allowed to solidify at 37° C. Cells were cultured as described above. After 24 hrs, cells on the upper surface of the membrane of the insert chamber were completely removed by wiping with a cotton swab. As a result, after […], cells that had invaded the lower side of the membrane were stained.\nAccording to the same method described above, cells were seeded in the Transwell chamber, coated with a thick layer of Matrigel, and cultured for 24 hrs. Cells that invaded the Matrigel were counted, and the results are shown as a graph."}, "SNU449Tp cells [2]": {"system": "SNU449Tp cells", "test": "Comparison of TSAHC and analogues: cell morphology and multilayer growth by optical microscope (FIG. 69)", "format": "cell-based, human", "details": "20 μM, 24 hr treatment", "description": "TSAHC and its structural analogues were compared for their effects on TM4SF5-mediated events. Dimethyl sulfoxide (DMSO) and chalcone analogues, used in this test, have the following chemical structure.\nSNU449 Cp cells and SNU449Tp cells were plated onto 6-well plates and treated with the above compounds at 20 μM for 24 hrs. Cells were monitored for changes in cell morphology using an optical microscope."}, "TM4SF5": {"biological_target": "T1, TM4SF5 (Homo sapiens, UniProt O14894)", "T1 construct": "expressed in transfected cells; host or cells: SNU449 hepatocarcinoma cells stably expressing TM4SF5 (the embodiment)", "T1 sequence (O14894 1-197)": "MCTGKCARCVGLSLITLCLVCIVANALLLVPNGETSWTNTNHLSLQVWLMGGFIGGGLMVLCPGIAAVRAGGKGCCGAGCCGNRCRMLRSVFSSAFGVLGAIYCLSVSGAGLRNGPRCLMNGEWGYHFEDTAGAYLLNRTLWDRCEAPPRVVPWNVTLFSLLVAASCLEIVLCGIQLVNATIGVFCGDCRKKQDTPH", "test": "Western blotting of lysates treated with PNGase F and Endo H (FIG. 50)", "format": "cell-based"}, "SNU449 Cp cells": {"system": "SNU449 Cp cells", "test": "Cell growth over time of TM4SF5-null cells (FIG. 43, left)", "format": "cell-based, human", "details": "TSAHC at given concentrations", "description": "(§1) Arrows indicate the overlapping nuclei of cells undergoing cell division. […] In addition, in order to measure the growth rates of the cells, 5×10^4 cells were plated onto 6-well plates and counted every 12 hrs. The results are expressed as a graph. […] This was observed even at a low cell density. That is, among cells at a low density, TM4SF5-expressing cells proliferated through cell division, during which two nuclei overlapped each other."}, "SNU449Tp cells [3]": {"system": "SNU449Tp cells", "test": "Cell growth over time of TM4SF5-expressing cells (FIG. 43, right)", "format": "cell-based, human", "details": "TSAHC at given concentrations", "description": "as §1"}, "SNU449Tp cells [4]": {"system": "SNU449Tp cells", "test": "Transwell chamber cell migration (FIG. 65)", "format": "cell-based, human", "details": "20 μM, 18 hrs", "description": "Cell migration was examined using Boyden Transwell chamber 24 well plates (Costar, Cambridge, Mass.). SNU449 Cp and SNU449Tp cells were placed in a chamber on a polycarbonate filter (8 μm porosity) at a density of 5×10^4 cells/well, and cultured in serum-free RPMI (Roswell Park Memorial Institute) media in an incubator at 37° C. under 5% CO2 for 24 hrs. Then, cells on the upper surface of the membrane of the insert chamber were completely removed by wiping with a cotton swab. Cells on the lower side of the membrane were fixed with 70% methanol for about 7 min.\nSNU449 Cp cells and SNU449Tp cells were plated onto 6-well plates and cultured for 24 hrs. Cells were then treated with 20 μM of TSAHC to culture for 18 hrs. Cells were transferred into insert wells of the Transwell chamber. After 18 hrs, migrated cells were fixed, stained, and observed under an optical microscope. Cells were counted, and the results were expressed as a graph (FIG. 65)."}, "SNU449Tp cells [5]": {"system": "SNU449Tp cells", "test": "Immunofluorescent staining for E-cadherin and β-catenin, cell-cell contact (FIG. 45)", "format": "cell-based, human", "details": "20 μM", "description": "(§2) When cells were transfected with given specific genes or infected with various viruses, they were used after being cultured for a given period of time. Cells treated with 10 mM lysophosphatidic acid (LPA) were used 1 hour after being attached to cover glasses. Immunofluorescent staining was carried out by preparing a slide for fluorescent analysis through incubation with a primary antibody against a target protein, washing out unbound antibody molecules, incubation with a fluorescein-conjugated secondary antibody and washing out unbound antibody molecules, and actin filament staininh was carried out with rhodamine-conjugated phalloidin. Antibodies used included antibodies against E-cadherin, β-catenin, FLAG, 4′-6-diamidino-2-phenylindole (DAPI), 5-brorno-2′-deoxy-uridine (BrdU), p27^kip1, ZO1 (zonula occludens-1), and the like. Immunofluorescent stained cover glasses were placed on slides and observed under a fluorescence microscope or a confocal laser scanning microscope."}, "TM4SF5-expressing cells": {"system": "TM4SF5-expressing cells", "test": "Immunostaining for DNA and the actin cytoskeleton, cell shape (FIG. 49)", "format": "cell-based, human", "description": "as §2"}, "[6]": {"system": "cells endogenously expressing TM4SF5", "test": "Growth/proliferation of cells endogenously expressing TM4SF5 (FIG. 51)", "format": "cell-based"}, "cytosolic p27^kip1": {"system": "cytosolic p27^kip1", "test": "Immunofluorescent staining for p27^kip1 (FIG. 47)", "format": "cell-based, human", "details": "449Tp cells", "description": "as §2"}},
  "data": [
    {"smiles": "Cc1ccc(S(=O)(=O)Nc2ccc(C(=O)/C=C/c3ccc(O)cc3)cc2)cc1", "note": "[Compound 1, 4′-(p-toluenesulfonylamino)-4-hydroxychalcone]", "values": [
      {"measurement": "TM4SF5-mediated activity of MMPs", "setting": "MMP-2 and MMP-9", "result": "inhibit the TM4SF5-mediated activity of MMPs"},
      {"measurement": "invasion into Matrigel", "setting": "SNU449Tp cells [1]", "result": "effectively inhibit invasion into Matrigel"},
      {"measurement": "TM4SF5-mediated multilayer growth", "setting": "SNU449Tp cells [2]", "result": "effectively stimulate the growth of TM4SF5-expressing cells, not in a multilayer but in a monolayer arrangement"},
      {"measurement": "cell morphology", "setting": "SNU449Tp cells [2]", "result": "changed the cell morphology into the same shape as that of SNU449 control cells not expressing TM4SF5"},
      {"measurement": "sensitivity of N-linked glycosylated region of TM4SF5 to PNGase F", "setting": "TM4SF5", "result": "increase the sensitivity of an N-linked glycosylated region of TM4SF5 to PNGase F"},
      {"measurement": "effect on TM4SF5-null cells", "setting": "SNU449 Cp cells", "result": "did not affect TM4SF5-null cells"},
      {"measurement": "growth over time of TM4SF5-expressing cells", "setting": "SNU449Tp cells [3]", "result": "reduced linear growth over time in a manner dependent on TSAHC concentrations"},
      {"measurement": "TM4SF5-mediated cell migration", "setting": "SNU449Tp cells [4]", "result": "inhibit TM4SF5-mediated cell migration"},
      {"measurement": "cell-cell contact", "setting": "SNU449Tp cells [5]", "result": "restored cell-cell contact"},
      {"measurement": "cell shape", "setting": "TM4SF5-expressing cells", "result": "returned the elongated cell shape to the same polygonal shape as that of TM4SF5-null control cells"},
      {"measurement": "growth or proliferation of cells endogenously expressing TM4SF5", "setting": "[6]", "result": "inhibited the growth or proliferation of cells endogenously expressing TM4SF5"},
      {"measurement": "cytosolic p27^kip1 levels", "setting": "cytosolic p27^kip1", "result": "decrease in cytosolic p27^kip1 levels"}
    ]}
  ]
}
